Measurements reported in US8748624B2, “Picolinamido-propanoic acid derivatives useful as glucagon receptor antagonists” (Janssen Pharmaceutica NV, priority 2011, dated 2014).

Target: human GCGR (Homo sapiens (Human), UniProt P47871)
Assay: Cellular functional assay, cAMP readout (glucagon-stimulated cAMP in HEK293 cells expressing human GCGR)
Assay type: cell-based
Settings: hGluc-1 HEK cells, LANCE TR-FRET, IC50 converted to Ki, average if tested more than once
Method: IC50 Values in Cellular Functional Assays: cAMP Readout
Full-length human GCGR (Accession Number: NM000160) subcloned into pcDNA3.1 was stably transfected into HEK293 cells (hGluc-1 HEK) and maintained under G418 selection (500 μg/mL). Cell cultures were maintained in DMEM/F12 media supplemented with 10% FBS and 1% GlutaMax. Glucagon stimulated cAMP was quantified using LANCE technology as per manufacturer instructions. On the day of the experiment, spent media was removed and cells were washed with Hank's Buffered Saline solution (HBSS) and cells were harvested with non-enzymatic cell dissociation solution, then washed once with HBSS. Cells were re-suspended in stimulation buffer at a concentration of 0.83×10^6 cells/ml and cAMP detection antibody was added. 6 μl/well of this solution was then dispensed in a 384 well plate (cell density 5000 cells/well). Test compound was serially diluted in DMSO and 50 nl were dispensed on top of the cell solution and allowed to incubate for 30 minutes. 6 μl of a 2× glucagon solution (final concentration in assay […]) was then added and the reaction was terminated after 5 minutes with the addition of detection mix. The mixture was incubated, protected from light for 1.5 h. cAMP levels were quantified by TR-FRET in an EnVision instrument against a known standard. IC50's were generated by using a non-linear regression macro driven in Excel and converted to K, values.

Sequence of human GCGR (P47871 26-477): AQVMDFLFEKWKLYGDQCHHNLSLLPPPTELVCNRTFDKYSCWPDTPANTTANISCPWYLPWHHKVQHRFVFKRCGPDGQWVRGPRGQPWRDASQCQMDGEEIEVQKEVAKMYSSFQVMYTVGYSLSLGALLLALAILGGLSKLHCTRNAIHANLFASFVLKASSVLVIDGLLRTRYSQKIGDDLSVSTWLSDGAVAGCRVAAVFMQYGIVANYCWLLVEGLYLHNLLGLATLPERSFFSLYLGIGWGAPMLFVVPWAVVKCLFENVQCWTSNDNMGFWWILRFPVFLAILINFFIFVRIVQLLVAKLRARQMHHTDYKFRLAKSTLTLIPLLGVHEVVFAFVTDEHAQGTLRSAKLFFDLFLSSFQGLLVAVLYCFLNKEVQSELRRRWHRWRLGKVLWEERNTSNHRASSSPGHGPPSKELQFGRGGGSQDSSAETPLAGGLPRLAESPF

Row | Ki [nM] | SMILES
1 | 45.8 | COc1cc(C(F)(F)F)cc(-c2ccc(C(=O)NCCC(=O)O)nc2)c1CNc1ccc(-c2ccc(C(F)(F)F)cc2)c(Cl)c1 [Compound 159, 3-(5-(2-(((2-chloro-4′-(trifluoromethyl)-[1,1′-biphenyl]-4-yl)amino)methyl)-3-methoxy-5-(trifluoromethyl)phenyl)picolinamido)propanoic acid]
2 | > 20000 | COc1ccc(CNc2ccc(-c3ccc(C(C)(C)C)cc3)cc2)c(-c2ccc(C(=O)NCCC(=O)O)nc2)c1 [Compound 49, 3-(5-(2-(((4′-(tert-butyl)-[1,1′-biphenyl]-4-yl)amino)methyl)-5-methoxyphenyl)picolinamido)propanoic acid]
3 | 280 | O=C(O)CCNC(=O)c1ccc(-c2cc(Cl)ccc2CNc2ccc(-c3ccc(F)cc3F)cc2)cn1 [Compound 18, 3-(5-(5-chloro-2-(((2′,4′-difluoro-[1,1′-biphenyl]-4-yl)amino)methyl)phenyl)picolinamido)propanoic acid]
4 | 205 | O=C(O)CCNC(=O)c1ccc(-c2cc(C(F)(F)F)ccc2CNc2ccc(-c3ccc(F)cc3F)c(C(F)(F)F)c2)cn1 [Compound 125, 3-(5-(2-(((2′,4′-difluoro-2-(trifluoromethyl)-[1,1′-biphenyl]-4-yl)amino)methyl)-5-(trifluoromethyl)phenyl)picolinamido)propanoic acid]
5 | > 20000 | COc1ccc(CNc2ccc(-c3ccc(OC(F)(F)F)cc3)cc2)c(-c2ccc(C(=O)NCCC(=O)O)nc2)c1 [Compound 48, 3-(5-(5-methoxy-2-(((4′-(trifluoromethoxy)-[1,1′-biphenyl]-4-yl)amino)methyl)phenyl)picolinamido)propanoic acid]
6 | > 5200 | O=C(O)CCNC(=O)c1ccc(-c2cc(C(F)(F)F)ccc2CNc2ccc(-c3ccc(Cl)cc3F)c(C(F)(F)F)c2)cn1 [Compound 126, 3-(5-(2-(((4′-chloro-2′-fluoro-2-(trifluoromethyl)-[1,1′-biphenyl]-4-yl)amino)methyl)-5-(trifluoromethyl)phenyl)picolinamido)propanoic acid]
7 | 45.8 | O=C(O)CCNC(=O)c1ccc(-c2cc(C(F)(F)F)ccc2CNc2ccc(-c3ccc(C(F)(F)F)cc3Cl)c(C(F)(F)F)c2)cn1 [Compound 128, 3-(5-(2-(((2′-chloro-2,4′-bis(trifluoromethyl)-[1,1′-biphenyl]-4-yl)amino)methyl)-5-(trifluoromethyl)phenyl)picolinamido)propanoic acid]
8 | 14.1 | Cc1cc(C(F)(F)F)ccc1-c1ccc(NCc2c(-c3ccc(C(=O)NCCC(=O)O)nc3)cc(C(F)(F)F)cc2C(F)(F)F)cc1 [Compound 83, 3-(5-(2-(((2′-methyl-4′-(trifluoromethyl)-[1,1′-biphenyl]-4-yl)amino)methyl)-3,5-bis(trifluoromethyl)phenyl)picolinamido)propanoic acid]
9 | 32.4 | O=C(O)CCNC(=O)c1ccc(-c2cc(C(F)(F)F)cc(C(F)(F)F)c2CNc2ccc(-c3c(Cl)cccc3Cl)cc2)cn1 [Compound 85, 3-(5-(2-(((2′,6′-dichloro-[1,1′-biphenyl]-4-yl)amino)methyl)-3,5-bis(trifluoromethyl)phenyl)picolinamido)propanoic acid]
10 | 65.4 | N#Cc1cc(NCc2ccc(Cl)cc2-c2ccc(C(=O)NCCC(=O)O)nc2)ccc1-c1ccc(Cl)cc1Cl [Compound 99, 3-(5-(5-chloro-2-(((2′,4′-dichloro-2-cyano-[1,1′-biphenyl]-4-yl)amino)methyl)phenyl)picolinamido)propanoic acid]
11 | > 20000 | COc1ccc(CNc2ccc(-c3ccc(C(F)(F)F)cc3)cc2)c(-c2ccc(C(=O)NCCC(=O)O)nc2)c1 [Compound 47, 3-(5-(5-methoxy-2-(((4′-(trifluoromethyl)-[1,1′-biphenyl]-4-yl)amino)methyl)phenyl)picolinamido)propanoic acid]
12 | > 20000 | COc1ccc(CNc2ccc(-c3cccc(OC(F)(F)F)c3)cc2)c(-c2ccc(C(=O)NCCC(=O)O)nc2)c1 [Compound 50, 3-(5-(5-methoxy-2-(((3′-(trifluoromethoxy)-[1,1′-biphenyl]-4-yl)amino)methyl)phenyl)picolinamido)propanoic acid]
13 | 135 | N#Cc1cc(NCc2ccc(Cl)cc2-c2ccc(C(=O)NCCC(=O)O)nc2)ccc1-c1ccc(F)c(C(F)(F)F)c1 [Compound 100, 3-(5-(5-chloro-2-(((2-cyano-4′-fluoro-3′-(trifluoromethyl)-[1,1′-biphenyl]-4-yl)amino)methyl)phenyl)picolinamido)propanoic acid]
14 | 14.5 | O=C(O)CCNC(=O)c1ccc(-c2cc(C(F)(F)F)cc(C(F)(F)F)c2CNc2ccc(-c3ccc(Cl)cc3)c(Cl)c2)cn1 [Compound 76, 3-(5-(2-(((2,4′-dichloro-[1,1′-biphenyl]-4-yl)amino)methyl)-3,5-bis(trifluoromethyl)phenyl)picolinamido)propanoic acid]
15 | 60 | Cc1cc(Cl)ccc1-c1ccc(NCc2ccc(C(F)(F)F)cc2-c2ccc(C(=O)NCCC(=O)O)nc2)cc1C(F)(F)F [Compound 119, 3-(5-(2-(((4′-chloro-2′-methyl-2-(trifluoromethyl)-[1,1′-biphenyl]-4-yl)amino)methyl)-5-(trifluoromethyl)phenyl)picolinamido)propanoic acid]
16 | 95 | N#Cc1cc(NCc2ccc(Cl)cc2-c2ccc(C(=O)NCCC(=O)O)nc2)ccc1-c1cccc(C(F)(F)F)c1Cl [Compound 101, 3-(5-(5-chloro-2-(((2′-chloro-2-cyano-3′-(trifluoromethyl)-[1,1′-biphenyl]-4-yl)amino)methyl)phenyl)picolinamido)propanoic acid]
17 | 85 | O=C(O)CCNC(=O)c1ccc(-c2cc(C(F)(F)F)ccc2CNc2ccc(-c3ccc(Cl)cc3Cl)c(C(F)(F)F)c2)cn1 [Compound 122, 3-(5-(2-(((2′,4′-dichloro-2-(trifluoromethyl)-[1,1′-biphenyl]-4-yl)amino)methyl)-5-(trifluoromethyl)phenyl)picolinamido)propanoic acid]
18 | 6.3 | Cc1cc(Cl)ccc1-c1ccc(NCc2c(-c3ccc(C(=O)NCCC(=O)O)nc3)cc(C(F)(F)F)cc2C2CC2)cc1Cl [Compound 178, 3-(5-(3-cyclopropyl-2-(((2,4′-dichloro-2′-methyl-[1,1′-biphenyl]-4-yl)amino)methyl)-5-(trifluoromethyl)phenyl)picolinamido)propanoic acid]
19 | 37.4 | Cc1cc(C(F)(F)F)ccc1-c1ccc(NCc2ccc(C(F)(F)F)cc2-c2ccc(C(=O)NCCC(=O)O)nc2)cc1C(F)(F)F [Compound 120, 3-(5-(2-(((2′-methyl-2,4′-bis(trifluoromethyl)-[1,1′-biphenyl]-4-yl)amino)methyl)-5-(trifluoromethyl)phenyl)picolinamido)propanoic acid]
20 | 100 | O=C(O)CCNC(=O)c1ccc(-c2cc(C(F)(F)F)ccc2CNc2ccc(-c3ccc(F)c(C(F)(F)F)c3)c(C(F)(F)F)c2)cn1 [Compound 121, 3-(5-(2-(((4′-fluoro-2,3′-bis(trifluoromethyl)-[1,1′-biphenyl]-4-yl)amino)methyl)-5-(trifluoromethyl)phenyl)picolinamido)propanoic acid]
21 | 8.2 | Cc1cc(C(F)(F)F)ccc1-c1ccc(NCc2c(C)cc(C(F)(F)F)cc2-c2ccc(C(=O)NCCC(=O)O)nc2)cc1Cl [Compound 166, 3-(5-(2-(((2-chloro-2′-methyl-4′-(trifluoromethyl)-[1,1′-biphenyl]-4-yl)amino)methyl)-3-methyl-5-(trifluoromethyl)phenyl)picolinamido)propanoic acid]
22 | 35 | Cc1cc(NCc2c(-c3ccc(C(=O)NCCC(=O)O)nc3)cc(C(F)(F)F)cc2C(F)(F)F)ccc1-c1ccc(Cl)cc1 [Compound 86, 3-(5-(2-(((4′-chloro-2-methyl-[1,1′-biphenyl]-4-yl)amino)methyl)-3,5-bis(trifluoromethyl)phenyl)picolinamido)propanoic acid]
23 | 61.2 | O=C(O)CCNC(=O)c1ccc(-c2cc(C(F)(F)F)cc(O)c2CNc2ccc(-c3ccc(Cl)cc3)c(Cl)c2)cn1 [Compound 164, 3-(5-(2-(((2,4′-dichloro-[1,1′-biphenyl]-4-yl)amino)methyl)-3-hydroxy-5-(trifluoromethyl)phenyl)picolinamido)propanoic acid]
24 | 46.9 | COc1cc(C(F)(F)F)cc(-c2ccc(C(=O)NCCC(=O)O)nc2)c1CNc1ccc(-c2ccc(Cl)cc2)c(Cl)c1 [Compound 162, 3-(5-(2-(((2,4′-dichloro-[1,1′-biphenyl]-4-yl)amino)methyl)-3-methoxy-5-(trifluoromethyl)phenyl)picolinamido)propanoic acid]
25 | 19.6 | Cc1cc(C(F)(F)F)ccc1-c1ccc(NCc2c(-c3ccccc3)cc(C(F)(F)F)cc2-c2ccc(C(=O)NCCC(=O)O)nc2)cc1Cl [Compound 179, 3-(5-(2-(((2-chloro-2′-methyl-4′-(trifluoromethyl)-[1,1′-biphenyl]-4-yl)amino)methyl)-5-(trifluoromethyl)-[1,1′-biphenyl]-3-yl)picolinamido)propanoic acid]
26 | 285 | CC(C)(C)c1ccc(-c2ccc(NCc3ccc(C(F)(F)F)cc3-c3ccc(C(=O)NCCC(=O)O)nc3)cc2C(F)(F)F)cc1 [Compound 124, 3-(5-(2-(((4′-(tert-butyl)-2-(trifluoromethyl)-[1,1′-biphenyl]-4-yl)amino)methyl)-5-(trifluoromethyl)phenyl)picolinamido)propanoic acid]
